Assay results: PMC8508710, “Biochemical Characterization of 13-Lipoxygenases of Arabidopsis thaliana” (International Journal of Molecular Sciences, 2021)

System: pea root LOX
Experiment: Ex vivo pea root extract LOX activity, oxygen electrode
Type: biochemical, Pisum sativum
Conditions: 36 µg pea root extract pretreated with 1 mM 12-OPDA
Protocol: To evaluate 12-OPDA as a LOX inhibitor under native conditions, we employed pea roots as a plant LOX source. The reliability was assessed with the criterion that an increase in A234nm and, ideally, oxygen consumption occurred via the injection of plant tissue extract (0.5–2 µg/µL protein in 50 mM Tris-HCl or K-Pi, pH 6.6–8.0) in LeA (tested at 4–100 µM). […] Pea seeds (Pisum sativum “Kleine Rheinländerin”) were placed in darkness for 4 days on moist paper. The emerged roots were cut, frozen in liquid N2, and stored at −80 °C. Frozen tissue (~50 mg/mL) was pulverized in a pre-chilled mortar and immediately ground with 50 mM Tris-HCl, pH 7.2. […]
The immunological detection of 13-LOX was performed, based on. […] After 1 h blocking with blocking solution (1% (w/v) non-fat dry milk in TBST (150 mM NaCl, 50 mM Tris-HCl, pH 7.5, 0.05% tween 20)) and overnight incubation (4 °C) with LOX2 (At3g45140) serum (Agrisera, AS07 258, 1:25,000 in blocking solution), the blot was washed with TBST and incubated (2 h, 25 °C) with horseradish peroxidase-coupled anti-rabbit IgG as second antibody (1:20,000 in blocking solution) for the subsequent luminescence detection of immunodecorated LOX on X-ray films (30 s incubation). […] The mixture was injected in 1.8 mL of 20 µM LeA (in 50 mM Tris-HCl, pH 7.2) and recorded for oxygen consumption.

**Q.** With `CCC=CCC1C(=O)C=CC1CCCCCCCC(=O)O` (stereo not drawn) [12-OPDA, cis-(+)-12-oxophytodienoic acid] as the compound, how does the Inhibition of activity (20 µM LeA) read?
**A.** about 43%

**Q.** And the Oxygen consumption (control 4.6 ± 0.5)?
**A.** 2.0 ± 0.5 nmol/mL/min
